Source: patent US6790447B1, “Peptides for treatment of autoimmune diseases” (priority 1994, dated 2004)

Legend:
uveitis = assay: Uveitogenicity after immunization with the peptides; format: in vivo; details: after immunization of objects with the peptides
Excerpt: Of these peptides B27PD and PDSAg are uveitogenic, i.e., after immunization of objects with the peptides they develop uveitis.

[1] = test system: S-antigen-induced uveitis; assay: S-antigen-induced uveitis after oral administration of antigens (oral tolerance); format: in vivo, Lewis rats; details: induction with S-antigen; for clinical symptoms reduced to: oral administration, compared to group fed control protein (ovalbumin), peptides 200 μg, proteins 1 mg, three doses every other day; for uveitis reduced by (histological evaluation): oral feeding, compared to ovalbumin fed control groups
Excerpt: (§1) Due to animal protection laws, the experiments were terminated three to four days after the last animals in the positive control groups diseased.
(§2) The histological evaluation consists of a grading of inflammatory signs in the tissue and destruction of the retina, the clinical grading refers to inflammatory signs of the conjunctiva and the anterior segment of the eye, which can be observed readily and are not necessarily correlated with the visual acuity.

IRBP induced uveitis = assay: IRBP-induced uveitis after oral administration of antigens (oral tolerance); format: in vivo, Lewis rats; details: induction with IRBP, oral feeding; for clinical symptoms / clinical score for uveitis reduced to: compared to maximal disease in PBS-fed group
Excerpt: as §1, §2

## A-L-N-E-D-L-S-S-W-T-A-A-D-T (ALNEDLSSWTAADT) [B27PD, 14 mer peptide of the invention]
uveitis
  uveitogenic properties: uveitogenic
[1]
  clinical symptoms reduced to: 16%
  uveitis reduced by (histological evaluation): 57%
IRBP induced uveitis
  clinical symptoms / clinical score for uveitis reduced to: 75%

## A-L-N-E-D-L-R-S-W-T-A-A-D-T (ALNEDLRSWTAADT) [B7PD, an irrelevant control peptide]
uveitis
  uveitogenic properties: does not have any uveitogenic properties

## F-L-G-E-L-T-S-S-E-V-A-T-E-V (FLGELTSSEVATEV) [PDSAg]
uveitis
  uveitogenic properties: uveitogenic
[1]
  clinical symptoms reduced to: 9%
  uveitis reduced by (histological evaluation): 14%
IRBP induced uveitis
  therapeutic properties: no therapeutic properties

## IRBP: interphotoreceptor-retinoid-binding protein, retinal protein
IRBP induced uveitis
  clinical symptoms / clinical score for uveitis reduced to: 25%
